For assay [1], the system named is pAKT(5473) (phosphorylated at serine 473), PC3 cells. Description: In-cell Western assay, pAKT(5473) in PC3 cells. The class given is cell-based. Particulars: Homo sapiens, PC-3, In-cell Western, read-out: pAkt-S473. The procedure: (§1) Cells from human prostate cancer cell line PC3 (American Type Culture Collection (ATCC), Manassas, Va. 20108 USA) were seeded at an optimal density of 22,000 cell/well in 96-well plates containing Ham's F12K medium (90 μL) and incubated overnight. The compound dilutions were carried out in 100% DMSO followed by a dilution in the medium. Test compounds were added in serial dilutions to the wells and incubated for 2 h. The cells were washed and fixed with 4% paraformaldehyde. After incubation at room temperature for 1 h in the dark, blocking was done for 2 h at room temperature. Primary antibodies for phosphorylated (p) AKT(5473) (phosphorylated at serine 473), pAKT(T308) (phosphorylated at threonine 308) and for pS6RP(S235/236) (phosphorylated at serine 235/236) (commercially available from Cell Signaling Technology®, whose protocol was followed for the in-cell western assay, were diluted to the required concentration and added to the corresponding wells followed by overnight incubation at 4° C. Eu-labeled rabbit (PE) (Perkin-Elmer USA catalog #AD0106) secondary antibody was added and incubated for 2 h at room temperature. Delfia® enhancement solution (cat #1244-105, Perkin Elmer USA) was subsequently added to the plate before taking the reading at 615 nm with excitation wavelength of 340 nm, after which 0.5 μg/mL of Hoechst® 33258 dye (Catalog #86140-5, Sigma) was added to the plate and fluorescence emission was read at 460 nm with 355 nm excitation, to evaluate the correction factor. IC50 values were calculated using a sigmoidal dose-response curve fit in GraphPad Prism® v5 software.

For another assay, the system named is pS6RP in PC3 tumor. Description: In vivo PK/PD study, PC3 tumor bearing mice, pS6RP. To be noted: Mus musculus, 50 mg/kg po, at 3 and 8 hours. The procedure:
PC3 cells were cultured at 37° C. in a 5% CO2 incubator using Hams F12 K medium. Ten million (10^7) cells were injected subcutaneously to the right flank region of athymic male mice (Harlan, age: 6-7 weeks, weight: about 20 g). Tumor bearing mice were randomized when the tumor volume reached about 250 mm^3 and three mice were used per each time point. Test compounds of formula (I) were formulated in 40% HPCD in 1×PBS, pH 7.4 and dosed orally at 50 mg/kg single dose (dose volume−10 mL/kg). Plasma and tumor samples were collected at 0 (vehicle control animals), 1, 4 and 24 hours post dosing. Blood was drawn (retro orbital) to a tube containing 0.2% EDTA for plasma collection. The tumor was excised from the mouse and immediately frozen in liquid nitrogen for PD analysis. Tumor and plasma drug concentrations were measured for PK analysis using LC-MS.
Snap frozen tumor samples were pulverized in a mortar (Belart) containing liquid nitrogen and tumor powder was stored at −80° C. until analysis. Pre coated ELISA kits (Cell Signaling Technology; pAKT(T308), CST#7135; pAKT(5473), CST#7134 and pS6RP, CST#7205) were used for PD analysis. Tumor powder was transferred to Eppendorf® tubes and lysis buffer (1 mL) was added to the powder. Protease and phosphatase inhibitors (SIGMA) and phenylmethanesulfonylfluoride (PMSF) were added to tumor powder and mixed by vortexing followed by sonication (15 sec). Samples were kept on an ice bath for 30 min. Supernatant was separated after centrifugation at 10,000 rpm for 20 min at 4° C. Supernatant was re-centrifuged and fresh supernatant was aliquoted to different tubes. Total protein was estimated using a BCA kit (Thermo Scientific) and 50 μg total protein was loaded to each well. ELISA analysis was carried out as per manufacturer's instructions. The detection for pAKT was based on chemiluminescence and pS6RP was based on absorbance. Qualitative assessments of the suppression of pAKT(T308), pAKT(5473), and pS6RP were also carried out by standard Western blot analyses.
For example, the compound of Example 1, at 50 mg/kg po, caused about 50% inhibition of pAkt(5473) at 1 and 4 hours and >50% inhibition of pS6RP at 1, 4 and 24 hours. Also, the compound of Example 2, at 50 mg/kg po, caused about 25-30% inhibition of pAkt(5473) at 4 and 24 hours and >50% inhibition of pS6RP at 1, 4 and 24 hours. The compound of example 51, at 30 mg/kg po, caused >50% inhibition of pS6RP at 2, 4 and 24 hours. Also, the compounds of examples 133, 146, 147, and 228, at 50 mg/kg po, each caused >50% inhibition of pS6RP at 3 and 8 hours.

A further assay has as its target T1, mTOR kinase (Homo sapiens, UniProt P42345).
T1 construct: purchased Millipore, USA
Description: mTOR kinase TR-FRET assay. The class given is biochemical. To be noted: read-out: mTO R. An outline of the steps: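 TR-FRET read-out (340 nm excitation, 615/665 nm emission) of Thr389 phosphorylation of a ULight-labeled p70 S6K peptide (50 nM) by mTOR, 20 μM ATP, 60 min room temperature after 60 min compound preincubation. Buffer HEPES pH 7.5 with MnCl2, EGTA; IC50 by sigmoidal dose-response.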
(TR-FRET usually uses a lanthanide donor and a delayed reading to cut background.)

The test system of assay [2] is pAKT(T308) (phosphorylated at threonine 308), PC3 cells. Description: In-cell Western assay, pAKT(T308) in PC3 cells. The class given is cell-based. To be noted: Homo sapiens, PC-3, In-cell Western. The procedure: as §1
Assay [3] deals with T2, PI3Kα (wild-type), P110/P85α (Homo sapiens, UniProt P42336).
T2 construct: made in house; host or cells: SF9 insect cells
Description: PI3 Kinase TR-FRET assay, PI3Kα (wild-type). The class given is biochemical. An outline of the steps: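 TR-FRET read-out of PIP3 formation via biotin-PIP3 displacement (665/615 nm ratio) gave IC50 curves. Enzyme: 5 ng wild-type P110/P85α from Sf9 cells, 60 min RT with compound and PIP2 (MgCl2 40 mM, DTT 5 mM), then 30 min RT kinase reaction at 10 μM ATP and 10 μM PIP2.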

The next assay has as its target PI3 kinase isoform δ (Homo sapiens, UniProt O00329). In words: PI3 Kinase TR-FRET assay, isoform δ. Type of assay: biochemical. Particulars: read-out: inhibition of PI3 kinase isoform δ, IC50. The procedure:
The ability of compounds of the invention to inhibit PI3K activity was determined in a homogeneous TR-FRET assay using a PI3K assay kit (Millipore, USA; cat #33-016) according to manufacturer's instructions. PI3-Kinases (isoforms α, β, γ and δ) catalyze the phosphorylation of phosphatidylinositol, PIP2 to PIP3 in the presence of ATP and Mg^2+. The PIP3 product is detected by displacement of biotin-PIP3 from an energy transfer complex consisting of Europium labeled anti-GST monoclonal antibody, a GST-tagged PH domain, biotinylated PIP3 and Streptavidin-APC. Excitation of Europium in the complex results in an energy transfer to the APC and a fluorescence emission at 665 nm. The PIP3 product displaces biotin-PIP3 from the complex resulting in a loss of energy transfer and thus a decrease in signal.
To test for the ability of compounds to inhibit the activity of PI3Kα (wild-type), exemplary compounds of formula (I) were dissolved in DMSO and directly distributed into 384-well plates at a volume of 0.5 μL. 14.5 μL of P110/P85α/PIP2 mixture in buffer (obtained from the Millipore kit) containing MgCl2 (40 mM) and DTT (5 mM) was added to compound wells and incubated for 60 min at room temperature. P110/P85α was expressed in SF9 insect cells and purified nickel column extraction. Five ng of wild-type P110/P85α was used in the assay. The kinase reaction was started by the addition of ATP. The assay concentrations of both PIP2 and ATP were 10 μM. The reaction mixture was incubated for 30 min at room temperature and was terminated by the addition of stop mix and detection mix. Fluorescence was measured at 615 and 665 nm upon excitation at 340 nm in a Victor™ V5 fluorometer (Perkin Elmer, USA). The fluorescence emission ratio at 665 to 615 nm, proportional to the kinase activity, was plotted against the compound concentration to generate dose-response curves and IC50 values were determined using GraphPad Prism® 5 software.
The activity of PI3 kinase isoforms β, γ and δ were assayed in a similar manner to the assay protocol described above for PI3Kα, by substituting the appropriate p110/p85 isoform for the p110α/p85α. Compounds of formula (I) caused inhibition of PI3 kinase isoforms β, γ and δ as determined by these assays. For example, the compounds of examples 3, 51, 54, 111, 113, 115, and 253 each caused inhibition of PI3 kinase isoform β with IC50 values <50 nM. The compounds of examples 104, 133, 146 and 152 each caused inhibition of PI3 kinase isoform β with IC50 values <500 nM. The compounds of examples 3, 51, 54, 104, 111, 113, 115, 133, 253, and 152 each caused inhibition of PI3 kinase isoform γ with IC50 values <500 nM. […] The compounds of examples 2, 3, 51, 54, 111, 113, and 253 each caused inhibition of PI3 kinase isoform […] with IC50 values >1 μM.

The subject of a further assay is PC3 cells. In words: XTT assay for cell viability, PC3 cells. Type of assay: cell-based, human. To be noted: Homo sapiens, PC-3, cell viability. An outline of the steps:
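PC3 cells seeded at 1000 cells/well, grown 24 h, then exposed to serial dilutions of compound for 96 h. Viability read by XTT dye at 37° C, absorbance 465 nm. EC50 from sigmoidal dose-response fit.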
In general terms: Tetrazolium dyes change colour on reduction, which living cells bring about.

Assay [4] relates to pS6RP(S235/236), PC3 cells. Description: In-cell Western assay, pS6RP(S235/236) in PC3 cells. Type of assay: cell-based, human. Particulars: Homo sapiens, PC-3, In-cell Western. The method, boiled down: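 Overnight-seeded PC3 cells were treated 2 h with serially diluted compound, then fixed and immunostained with phospho-specific primary antibodies and Eu-labelled secondary. Time-resolved Eu signal read at 615 nm (ex 340 nm), normalised by Hoechst 33258 staining (ex 355/em 460 nm); IC50 from sigmoidal dose-response fit.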

A value given as a limit tells only on which side of the number the result lay.

PI3 kinase isoform δ, sequence (O00329 whole entry, the tested form may be a part, canonical isoform): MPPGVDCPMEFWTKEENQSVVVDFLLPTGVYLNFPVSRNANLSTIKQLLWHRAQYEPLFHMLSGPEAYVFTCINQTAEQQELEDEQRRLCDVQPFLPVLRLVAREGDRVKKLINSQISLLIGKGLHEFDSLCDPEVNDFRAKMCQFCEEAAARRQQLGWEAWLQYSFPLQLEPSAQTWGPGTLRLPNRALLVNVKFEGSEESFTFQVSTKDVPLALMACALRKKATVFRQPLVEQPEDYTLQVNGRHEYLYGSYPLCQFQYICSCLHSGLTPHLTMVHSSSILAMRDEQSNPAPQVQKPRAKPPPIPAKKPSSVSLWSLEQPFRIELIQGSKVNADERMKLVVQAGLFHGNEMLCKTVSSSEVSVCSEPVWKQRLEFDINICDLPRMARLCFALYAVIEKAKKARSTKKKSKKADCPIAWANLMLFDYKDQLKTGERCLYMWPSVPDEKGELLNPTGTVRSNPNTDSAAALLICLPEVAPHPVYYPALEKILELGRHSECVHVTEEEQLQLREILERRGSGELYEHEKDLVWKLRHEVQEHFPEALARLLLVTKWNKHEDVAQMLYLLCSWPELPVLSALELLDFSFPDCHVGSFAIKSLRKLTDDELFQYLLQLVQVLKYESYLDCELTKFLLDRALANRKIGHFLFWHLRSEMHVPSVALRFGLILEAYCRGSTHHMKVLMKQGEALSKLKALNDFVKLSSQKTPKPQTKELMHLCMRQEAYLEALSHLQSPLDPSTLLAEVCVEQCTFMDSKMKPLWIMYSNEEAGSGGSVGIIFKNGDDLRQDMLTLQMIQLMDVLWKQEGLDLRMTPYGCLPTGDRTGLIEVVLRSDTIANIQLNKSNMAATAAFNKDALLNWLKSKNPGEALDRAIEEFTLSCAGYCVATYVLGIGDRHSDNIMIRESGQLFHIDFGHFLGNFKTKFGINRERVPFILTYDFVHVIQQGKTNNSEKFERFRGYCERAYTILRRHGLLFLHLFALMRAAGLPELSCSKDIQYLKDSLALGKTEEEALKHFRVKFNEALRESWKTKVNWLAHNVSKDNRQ
PI3 kinase isoform δ, sequence (P27986 whole entry partner, the tested form may be a part, canonical isoform): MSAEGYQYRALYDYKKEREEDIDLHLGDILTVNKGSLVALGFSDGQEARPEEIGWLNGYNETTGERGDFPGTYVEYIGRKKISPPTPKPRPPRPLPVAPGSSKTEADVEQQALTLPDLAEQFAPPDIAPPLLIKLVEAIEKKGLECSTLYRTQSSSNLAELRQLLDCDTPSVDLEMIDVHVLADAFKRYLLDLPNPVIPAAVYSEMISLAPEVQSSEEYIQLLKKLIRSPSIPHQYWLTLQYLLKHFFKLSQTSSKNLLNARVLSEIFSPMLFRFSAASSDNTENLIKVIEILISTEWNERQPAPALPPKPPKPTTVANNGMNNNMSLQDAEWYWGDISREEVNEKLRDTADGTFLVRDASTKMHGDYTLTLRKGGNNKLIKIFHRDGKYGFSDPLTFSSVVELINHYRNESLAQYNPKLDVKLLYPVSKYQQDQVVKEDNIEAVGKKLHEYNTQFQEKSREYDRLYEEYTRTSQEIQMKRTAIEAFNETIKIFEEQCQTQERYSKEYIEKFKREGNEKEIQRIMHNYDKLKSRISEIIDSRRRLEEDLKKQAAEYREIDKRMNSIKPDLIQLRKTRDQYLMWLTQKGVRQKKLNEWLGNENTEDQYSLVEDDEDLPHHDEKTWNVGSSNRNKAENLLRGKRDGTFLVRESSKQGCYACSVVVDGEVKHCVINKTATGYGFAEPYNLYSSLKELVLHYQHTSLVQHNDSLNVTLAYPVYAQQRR
T2 sequence (P42336 whole entry): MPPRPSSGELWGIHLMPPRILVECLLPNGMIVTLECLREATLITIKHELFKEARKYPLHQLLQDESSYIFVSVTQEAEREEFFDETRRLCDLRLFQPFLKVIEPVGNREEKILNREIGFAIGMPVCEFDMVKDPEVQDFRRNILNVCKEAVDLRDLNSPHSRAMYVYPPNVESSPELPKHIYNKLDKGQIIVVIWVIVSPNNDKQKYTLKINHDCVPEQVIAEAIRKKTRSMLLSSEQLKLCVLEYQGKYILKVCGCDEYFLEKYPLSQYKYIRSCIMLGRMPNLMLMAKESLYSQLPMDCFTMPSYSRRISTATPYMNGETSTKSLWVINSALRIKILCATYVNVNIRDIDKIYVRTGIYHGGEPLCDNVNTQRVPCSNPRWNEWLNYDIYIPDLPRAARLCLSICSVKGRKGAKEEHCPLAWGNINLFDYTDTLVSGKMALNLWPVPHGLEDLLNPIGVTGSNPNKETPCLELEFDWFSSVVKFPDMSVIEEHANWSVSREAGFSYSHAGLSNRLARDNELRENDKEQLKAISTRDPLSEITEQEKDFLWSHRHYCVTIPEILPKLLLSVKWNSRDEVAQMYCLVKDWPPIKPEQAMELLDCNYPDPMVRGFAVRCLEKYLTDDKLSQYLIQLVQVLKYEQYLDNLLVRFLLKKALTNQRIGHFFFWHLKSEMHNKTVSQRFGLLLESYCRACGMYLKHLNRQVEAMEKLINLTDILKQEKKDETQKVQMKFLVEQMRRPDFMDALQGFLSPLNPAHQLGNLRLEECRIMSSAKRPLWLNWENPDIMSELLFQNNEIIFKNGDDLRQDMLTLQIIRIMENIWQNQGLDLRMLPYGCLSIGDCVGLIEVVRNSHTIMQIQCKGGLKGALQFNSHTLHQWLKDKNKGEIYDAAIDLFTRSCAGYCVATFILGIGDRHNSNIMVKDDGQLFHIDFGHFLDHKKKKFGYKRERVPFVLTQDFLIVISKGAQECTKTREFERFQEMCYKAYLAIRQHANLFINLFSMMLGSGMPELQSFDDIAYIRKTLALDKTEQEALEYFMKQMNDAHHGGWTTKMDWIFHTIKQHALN
T2 sequence (P27986 whole entry partner): as the sequence (P27986 whole entry partner, the tested form may be a part, canonical isoform) above

Consider `COc1ncc(-c2ccc3c(N4CCOCC4)nc(-c4ccc(NC(=O)Nc5ccc(C(=O)N(C)C)cc5F)cc4)nc3c2)cn1` [Example 147, 3-fluoro-4-(3-(4-(7-(2-methoxypyrimidin-5-yl)-4-morpholino-quinazolin-2-yl)phenyl)ureido)-N,N-dimethyl-benzamide], for which the IC50 was below 100 nM in assay [1], below 50 nM at mTOR kinase, 201 to 10000 nM in assay [2] and 50 to 200 nM in assay [3]. Moreover, in the assay on pS6RP in PC3 tumor, the inhibition (usually the percentage by which the read-out fell short of the control) at 50 mg/kg was above 50%.
Take `CN(C)C(=O)c1ccc(NC(=O)Nc2ccc(-c3nc(N4CCOCC4)c4ccc(-c5cccc(S(C)(=O)=O)c5)cc4n3)cn2)cc1F` [Example 253, 2-fluoro-N,N-dimethyl-4-(3-(5-(7-(3-(methylsulfonyl)phenyl)-4-morpholino-quinazolin-2-yl)pyridin-2-yl)ureido)-benzamide]: the IC50 is below 100 nM in assay [1], above 1000 nM at PI3 kinase isoform δ, 201 to 10000 nM on mTOR kinase and below 50 nM in assay [3].
With `CN(C)C(=O)c1ccc(NC(=O)Nc2ccc(-c3nc(N4CCOCC4)c4ccc(-c5cccnc5F)cc4n3)cn2)cc1` [Example 54, 4-(3-{5-[7-(2-fluoro-pyridin-3-yl)-4-morpholin-4-yl-quinazolin-2-yl]-pyridin-2-yl}-ureido)-N,N-dimethyl-benzamide], the IC50 on PI3 kinase isoform δ was above 1000 nM; at mTOR kinase it was 50 to 200 nM; in assay [3], below 50 nM; in the assay with PC3 cells, 100 to 500 nM.
Take `CN(C)C(=O)c1ccc(NC(=O)Nc2ccc(-c3nc(N4CCOCC4)c4cc(F)c(-c5cnn(C)c5)cc4n3)cn2)cc1` [Example 113, 4-(3-(5-(6-fluoro-7-(1-methyl-1H-pyrazol-4-yl)-4-morpholino-quinazolin-2-yl)pyridin-2-yl)ureido)-N,N-dimethyl-benzamide]: the IC50 was below 100 nM in assay [1]; above 1000 nM at PI3 kinase isoform δ; below 100 nM in assay [4]; 50 to 200 nM on mTOR kinase; below 50 nM in assay [3]; 201 to 10000 nM in the assay on PC3 cells.
As for `CN(C)C(=O)c1ccc(NC(=O)Nc2ccc(-c3nc(N4CCOCC4)c4ncc(-c5cccnc5F)cc4n3)cn2)cc1` [Example 111, 4-(3-(5-(7-(2-fluoropyridin-3-yl)-4-morpholino-pyrido[3,2-d]pyrimidin-2-yl)pyridin-2-yl)ureido)-N,N-dimethyl-benzamide], the IC50 in assay [1] was 201 to 10000 nM; on PI3 kinase isoform δ it was above 1000 nM; in assay [4], 201 to 10000 nM; on mTOR kinase, below 50 nM; in assay [3] it was below 50 nM; in the assay on PC3 cells it was 201 to 10000 nM.
Take `CN(C)C(=O)c1ccc(NC(=O)Nc2ccc(-c3nc(N4CCOCC4)c4ccc(-c5ccc(CO)o5)cc4n3)cc2)c(F)c1` [Example 228, 3-fluoro-4-(3-(4-(7-(5-(hydroxymethyl)furan-2-yl)-4-morpholino-quinazolin-2-yl)phenyl)ureido)-N,N-dimethyl-benzamide]: the figures for the IC50 (in assay [1]; on mTOR kinase; in assay [3]) were 501 to 5000 nM, below 50 nM and below 50 nM, respectively. In the assay with pS6RP in PC3 tumor, this compound registered an inhibition at 50 mg/kg above 50%.
Regarding `CN(C)C(=O)c1ccc(NC(=O)Nc2ccc(-c3nc(N4CCOCC4)c4ccc(-c5cccc(S(C)(=O)=O)c5)cc4n3)cn2)cc1` [Example 3], the IC50 at PI3 kinase isoform δ was above 1000 nM; at mTOR kinase, 50 to 200 nM; in assay [3] it was below 50 nM; with PC3 cells it was 100 to 500 nM.

The record behind these values is patent publication US9115092B2, “Substituted quinazoline and pyrido-pyrimidine derivatives” (Asana Biosciences, LLC, priority 2010, dated 2015).
